In ChEMBL document CHEMBL5724914, “Linking interpersonal differences in gut microbiota composition and drug biotransformation activity” (2024):

Tests used:
[1] = (§1) The drug is tested on Z-001 corresponding to mouse gut metagenome with ENA study accession number: PRJEB37062 and ENA sample accession number: ERS12561801 for biotransformation under anaerobic condition. The drug concentrations were measured over 9 timepoints collected between 0 and 24 hours of incubation by liquid-chromatography-coupled mass spectrometry (LC–MS); details: 2 µM
[2] = as §1, with “WLS-006” for “Z-001”, “human” for “mouse”, “ERS12561741” for “ERS12561801”; details: 2 µM
[3] = human gut metagenome, 24 h, 2 µM
[4] = as §1, with “Z-003” for “Z-001”, “pig” for “mouse”, “ERS12561803” for “ERS12561801”; details: 2 µM
[5] = as §1, with “Z-025” for “Z-001”, “rabbit” for “mouse”, “ERS12561824” for “ERS12561801”; details: 2 µM
[6] = as §1, with “WLS-310” for “Z-001”, “human” for “mouse”, “ERS12561785” for “ERS12561801”; details: 2 µM
[7] = as §1, with “WLS-350” for “Z-001”, “human” for “mouse”, “ERS12561789” for “ERS12561801”; details: 2 µM
[8] = human gut metagenome, 24 h, 2 µM; remark: listed apart in the source
[9] = as §1, with “Z-024” for “Z-001”, “pig” for “mouse”, “ERS12561823” for “ERS12561801”; details: 2 µM
[10] = as §1, with “Z-007” for “Z-001”, “rat” for “mouse”, “ERS12561807” for “ERS12561801”; details: 2 µM
[11] = human gut metagenome, 24 h, 2 µM; remark: listed apart in the source
[12] = human gut metagenome, 24 h, 2 µM; remark: listed apart in the source
[13] = as §1, with “WLS-220” for “Z-001”, “human” for “mouse”, “ERS12561769” for “ERS12561801”; details: 2 µM
[14] = human gut metagenome, 24 h, 2 µM; remark: listed apart in the source
[15] = human gut metagenome, 24 h, 2 µM; remark: listed apart in the source
[16] = human gut metagenome, 24 h, 2 µM; remark: listed apart in the source
[17] = as §1, with “Z-018” for “Z-001”, “pig” for “mouse”, “ERS12561817” for “ERS12561801”; details: 2 µM
[18] = human gut metagenome, 24 h, 2 µM; remark: listed apart in the source
[19] = human gut metagenome, 24 h, 2 µM; remark: listed apart in the source
[20] = as §1, with “Z-021” for “Z-001”, “to” for “to mouse gut”, “ERS12561820” for “ERS12561801”; details: 2 µM
Note: call rule not given here.

| Bacterial Biotransformation [1] | Bacterial Biotransformation [2] | Bacterial Biotransformation [3] | Bacterial Biotransformation [4] | Bacterial Biotransformation [5] | Bacterial Biotransformation [6] | Bacterial Biotransformation [7] | Bacterial Biotransformation [8] | Bacterial Biotransformation [9] | Bacterial Biotransformation [10] | Bacterial Biotransformation [11] | Bacterial Biotransformation [12] | Bacterial Biotransformation [13] | Bacterial Biotransformation [14] | Bacterial Biotransformation [15] | Bacterial Biotransformation [16] | Bacterial Biotransformation [17] | Bacterial Biotransformation [18] | Bacterial Biotransformation [19] | Bacterial Biotransformation [20] | Structure (SMILES) |
| --- | --- | --- | --- | --- | --- | --- | --- | --- | --- | --- | --- | --- | --- | --- | --- | --- | --- | --- | --- | --- |
| Compound NOT metabolized | Compound NOT metabolized | Compound NOT metabolized | Compound NOT metabolized | Compound NOT metabolized | Compound NOT metabolized | Compound NOT metabolized | Compound NOT metabolized | Compound NOT metabolized | Compound NOT metabolized | Compound NOT metabolized | Compound NOT metabolized | Compound NOT metabolized | Compound NOT metabolized | Compound NOT metabolized | Compound NOT metabolized | Compound NOT metabolized | Compound metabolized | Compound NOT metabolized | Compound metabolized | CCOc1ccc2nc(S(N)(=O)=O)sc2c1 [ETHOXZOLAMIDE] |
| Compound NOT metabolized | Compound metabolized | Compound metabolized | Compound NOT metabolized | Compound NOT metabolized | Compound metabolized | Compound NOT metabolized | Compound metabolized | Compound NOT metabolized | Compound NOT metabolized | Compound metabolized | Compound metabolized | Compound metabolized | Compound metabolized | Compound metabolized | Compound metabolized | Compound metabolized | Compound metabolized | Compound metabolized | Compound NOT metabolized | CCc1cccc2c3c([nH]c12)C(CC)(CC(=O)O)OCC3 (stereo not given) [ETODOLAC] |
| Compound NOT metabolized | Compound metabolized | Compound metabolized | Compound metabolized | Compound NOT metabolized | Compound metabolized | Compound metabolized | Compound metabolized | Compound metabolized | Compound NOT metabolized | Compound metabolized | Compound metabolized | Compound metabolized | Compound metabolized | Compound metabolized | Compound metabolized | Compound metabolized | Compound metabolized | Compound metabolized | Compound NOT metabolized | CC(C)(C)NC(=O)[C@H]1CC[C@H]2[C@@H]3CC[C@H]4NC(=O)C=C[C@]4(C)[C@H]3CC[C@]12C [FINASTERIDE] |
| Compound NOT metabolized | Compound NOT metabolized | Compound NOT metabolized | Compound NOT metabolized | Compound NOT metabolized | Compound NOT metabolized | Compound NOT metabolized | Compound NOT metabolized | Compound NOT metabolized | Compound NOT metabolized | Compound NOT metabolized | Compound NOT metabolized | Compound NOT metabolized | Compound NOT metabolized | Compound NOT metabolized | Compound NOT metabolized | Compound NOT metabolized | Compound NOT metabolized | Compound NOT metabolized | Compound NOT metabolized | CC1Cc2ccccc2N1NC(=O)c1ccc(Cl)c(S(N)(=O)=O)c1 (stereo not given) [INDAPAMIDE] |
| Compound NOT metabolized | Compound metabolized | Compound metabolized | Compound NOT metabolized | Compound NOT metabolized | Compound metabolized | Compound metabolized | Compound metabolized | Compound NOT metabolized | Compound NOT metabolized | Compound metabolized | Compound metabolized | Compound metabolized | Compound NOT metabolized | Compound metabolized | Compound metabolized | Compound metabolized | Compound metabolized | Compound metabolized | Compound NOT metabolized | COc1ccc2c(c1)c(CC(=O)O)c(C)n2C(=O)c1ccc(Cl)cc1 [INDOMETHACIN] |
| Compound NOT metabolized | Compound NOT metabolized | Compound NOT metabolized | Compound NOT metabolized | Compound metabolized | Compound NOT metabolized | Compound NOT metabolized | Compound NOT metabolized | Compound metabolized | Compound NOT metabolized | Compound NOT metabolized | Compound NOT metabolized | Compound NOT metabolized | Compound NOT metabolized | Compound NOT metabolized | Compound NOT metabolized | Compound NOT metabolized | Compound metabolized | Compound NOT metabolized | Compound NOT metabolized | CC(CCc1ccccc1)NCC(O)c1ccc(O)c(C(N)=O)c1 (stereo not given) [LABETALOL] |

| Structure (SMILES) | Bacterial Biotransformation [1] | Bacterial Biotransformation [2] | Bacterial Biotransformation [3] | Bacterial Biotransformation [4] | Bacterial Biotransformation [5] | Bacterial Biotransformation [6] | Bacterial Biotransformation [7] | Bacterial Biotransformation [8] | Bacterial Biotransformation [9] | Bacterial Biotransformation [10] | Bacterial Biotransformation [11] | Bacterial Biotransformation [12] | Bacterial Biotransformation [13] | Bacterial Biotransformation [14] | Bacterial Biotransformation [15] | Bacterial Biotransformation [16] | Bacterial Biotransformation [17] | Bacterial Biotransformation [18] | Bacterial Biotransformation [19] | Bacterial Biotransformation [20] |
| --- | --- | --- | --- | --- | --- | --- | --- | --- | --- | --- | --- | --- | --- | --- | --- | --- | --- | --- | --- | --- |
| CN(C)CCOC(C)(c1ccccc1)c1ccccn1.O=C(O)CCC(=O)O (stereo not given) [DOXYLAMINE SUCCINATE] | Compound NOT metabolized | Compound NOT metabolized | Compound NOT metabolized | Compound NOT metabolized | Compound NOT metabolized | Compound NOT metabolized | Compound NOT metabolized | Compound NOT metabolized | Compound NOT metabolized | Compound NOT metabolized | Compound NOT metabolized | Compound NOT metabolized | Compound NOT metabolized | Compound NOT metabolized | Compound NOT metabolized | Compound NOT metabolized | Compound NOT metabolized | Compound NOT metabolized | Compound NOT metabolized | Compound NOT metabolized |
| Br.CN1CCC[C@@H]1Cc1c[nH]c2ccc(CCS(=O)(=O)c3ccccc3)cc12 [ELETRIPTAN HYDROBROMIDE] | Compound NOT metabolized | Compound NOT metabolized | Compound metabolized | Compound NOT metabolized | Compound NOT metabolized | Compound metabolized | Compound NOT metabolized | Compound NOT metabolized | Compound NOT metabolized | Compound NOT metabolized | Compound NOT metabolized | Compound NOT metabolized | Compound metabolized | Compound metabolized | Compound metabolized | Compound metabolized | Compound NOT metabolized | Compound metabolized | Compound NOT metabolized | Compound NOT metabolized |
